For orientation: IC50 means the concentration that gives 50% inhibition.

A value given as a limit tells only on which side of the number the result lay.

Results on 21 compounds are retold here after US9149475B2, “Protein kinase C inhibitors and uses thereof” (Rigel Pharmaceuticals, Inc., priority 2009, dated 2015).

The test system of one assay is Human primary T cells. As to the kind of experiment: IL-2 ELISA, human primary T cell, anti-CD3+CD28+ (whole cell assay). In kind it is cell-based. The settings on record: Homo sapiens, T-cell, 24 h, human primary T cells stimulated with anti-CD3 + anti-CD28, 24 hours. A digest of the protocol:
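PBMC-derived T cells, pre-expanded on αCD3/αCD28 with IL-2 and then washed free of IL-2, were preincubated with compound for 1 hr at 37° C (100,000 cells/well). They were then stimulated on 1 μg/ml αCD3 plus 5 μg/ml αCD28 for 24 h, and supernatant IL-2 was measured by ELISA. The counter-assay used 0.5 ng/ml PMA plus 0.1 μM ionomycin instead.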
In general terms: ELISA stands for enzyme-linked immunosorbent assay.
For `CC1(C)CC(Nc2nc(Nc3ccc(OCCCN4CCOCC4)c(OC(F)F)c3)ncc2F)CC(C)(C)N1CC(F)(F)F` [Compound I-66, N2-(4-(3-morpholinopropoxy)-3-(difluoromethoxy)phenyl)-5-fluoro-N4-(1-(2,2,2-trifluoroethyl)-2,2,6,6-tetramethylpiperidin-4-yl)pyrimidine-2,4-diamine], the IC50 is > 1000 nM.

Still in this assay, the particulars now being: human primary T cells stimulated with anti-CD3 + anti-CD28, 24 hours.
As to `CC1(C)CC(Nc2nc(Nc3ccc(F)c(-n4cnnn4)c3)ncc2C(N)=O)CC(C)(C)N1` [Compound I-67, 5-aminocarbonyl-N2-[4-fluoro-3-(1H-tetrazol-1-yl)]phenyl-N4-(2,2,6,6-tetramethylpiperidin-4-yl)-2,4-pyrimidinediamine], the IC50 is > 1000 nM.

For the compound `CCOc1ccc(Nc2ncc(C(N)=O)c(NC3CC(C)(C)NC(C)(C)C3)n2)cc1-n1nnnc1CC` [Compound I-68, 5-aminocarbonyl-N2-[4-ethoxy-3-(5-ethyl-1H-tetrazol-1-yl)]phenyl-N4-(2,2,6,6-tetramethylpiperidin-4-yl)-2,4-pyrimidinediamine], the half-maximal inhibitory concentration (IC50) was > 1000 nM.

`CN1C(C)(C)CC(Nc2nc(Nc3cccc(-n4nnnc4SCC(F)(F)F)c3)ncc2F)CC1(C)C` [Compound I-69, 5-fluoro-N4-(1,2,2,6,6-pentamethylpiperidin-4-yl)-N2-{3-[5-(2,2,2-trifluoroethyl)thio]-1H-tetrazol-1-yl}phenyl-2,4-pyrimidinediamine]: the IC50 was < 250 nM.

With `CC1(C)CC(Nc2nc(Nc3cccc(-n4nnnc4SCC(F)(F)F)c3)ncc2F)CC(C)(C)N1` [Compound I-70, 5-fluoro-N4-(2,2,6,6-tetramethylpiperidin-4-yl)-N2-{3-[5-(2,2,2-trifluoroethyl)thio]-1H-tetrazol-1-yl}phenyl-2,4-pyrimidinediamine], the IC50 was < 250 nM.

On to `CN1C(C)(C)CC(Nc2nc(Nc3cccc(-n4nnnc4SCC(F)(F)F)c3)ncc2C(N)=O)CC1(C)C` [Compound I-71, 5-aminocarbonyl-N4-(1,2,2,6,6-pentamethylpiperidin-4-yl)-N2-{3-[5-(2,2,2-trifluoroethyl)thio]-1H-tetrazol-1-yl}phenyl-2,4-pyrimidinediamine], for which the IC50 lay within 250 to 500 nM.

For `CC1(C)CC(Nc2nc(Nc3cccc(-n4nnnc4SCC(F)(F)F)c3)ncc2C(N)=O)CC(C)(C)N1` [Compound I-72, 5-aminocarbonyl-N4-(2,2,6,6-tetramethylpiperidin-4-yl)-N2-{3-[5-(2,2,2-trifluoroethyl)thio]-1H-tetrazol-1-yl}phenyl-2,4-pyrimidinediamine], the IC50 is > 1000 nM.

With `CN1C(C)(C)CC(Nc2nc(Nc3ccc(F)c(-n4cnnn4)c3)ncc2C#N)CC1(C)C` [Compound I-73, 5-cyano-N2-[4-fluoro-3-(1H-tetrazol-1-yl)]phenyl-N4-(1,2,2,6,6-pentamethylpiperidin-4-yl)-2,4-pyrimidinediamine], the IC50 was < 250 nM.

Regarding `CCCc1nnnn1-c1cc(Nc2ncc(F)c(NC3CC(C)(C)NC(C)(C)C3)n2)ccc1OC` [Compound I-74, 5-fluoro-N2-[4-methoxy-3-(5-propyl-1H-tetrazol-1-yl)]phenyl-N4-(2,2,6,6-tetramethylpiperidin-4-yl)-2,4-pyrimidinediamine], the IC50 was < 250 nM.

In the case of `CCCc1nnnn1-c1cc(Nc2ncc(C(N)=O)c(NC3CC(C)(C)N(C)C(C)(C)C3)n2)ccc1OC` [Compound I-75, 5-aminocarbonyl-N2-[4-methoxy-3-(5-propyl-1H-tetrazol-1-yl)]phenyl-N4-(1,2,2,6,6-pentamethylpiperidin-4-yl)-2,4-pyrimidinediamine], the IC50 lay in the range of 500 to 1000 nM.

Turning to `CCCc1nnnn1-c1cc(Nc2ncc(C(N)=O)c(NC3CC(C)(C)NC(C)(C)C3)n2)ccc1OC` [Compound I-76, 5-aminocarbonyl-N2-[4-methoxy-3-(5-propyl-1H-tetrazol-1-yl)]phenyl-N4-(2,2,6,6-tetramethylpiperidin-4-yl)-2,4-pyrimidinediamine], the IC50 was > 1000 nM.

Regarding `CC1(C)CC(Nc2nc(Nc3ccc(F)c(-n4cnnn4)c3)ncc2C#N)CC(C)(C)N1` [Compound I-77, 5-cyano-N2-[4-fluoro-3-(1H-tetrazol-1-yl)]phenyl-N4-(2,2,6,6-tetramethylpiperidin-4-yl)-2,4-pyrimidinediamine], the IC50 lay in the range of 250 to 500 nM.

`CN1C(C)(C)CC(Nc2nc(Nc3cccc(-n4nnnc4SCC(F)(F)F)c3)ncc2C#N)CC1(C)C` [Compound I-78, 5-cyano-N4-(1,2,2,6,6-pentamethylpiperidin-4-yl)-N2-{3-[5-(2,2,2-trifluoroethyl)thio]-1H-tetrazol-1-yl}phenyl-2,4-pyrimidinediamine]: the IC50 is < 250 nM.

`CC1(C)CC(Nc2nc(Nc3cccc(-n4nnnc4SCC(F)(F)F)c3)ncc2C#N)CC(C)(C)N1` [Compound I-79, 5-cyano-N4-(2,2,6,6-tetramethylpiperidin-4-yl)-N2-{3-[5-(2,2,2-trifluoroethyl)thio]-1H-tetrazol-1-yl}phenyl-2,4-pyrimidinediamine]: the IC50 is < 250 nM.

`CCCc1nnnn1-c1cc(Nc2ncc(C#N)c(NC3CC(C)(C)N(C)C(C)(C)C3)n2)ccc1OC` [Compound I-80, 5-cyano-N2-[4-methoxy-3-(5-propyl-1H-tetrazol-1-yl)]phenyl-N4-(1,2,2,6,6-pentamethylpiperidin-4-yl)-2,4-pyrimidinediamine]: the IC50 is < 250 nM.

Consider `CCCc1nnnn1-c1cc(Nc2ncc(C#N)c(NC3CC(C)(C)NC(C)(C)C3)n2)ccc1OC` [Compound I-81, 5-cyano-N2-[4-methoxy-3-(5-propyl-1H-tetrazol-1-yl)]phenyl-N4-(2,2,6,6-tetramethylpiperidin-4-yl)-2,4-pyrimidinediamine], for which the IC50 was 250 to 500 nM.

In the case of `CCc1nnnn1-c1cc(Nc2ncc(C(N)=O)c(NC3CC(C)(C)NC(C)(C)C3)n2)ccc1OC(F)F` [Compound I-83, 5-aminocarbonyl-N2-[4-difluoromethoxy-3-(5-ethyl-1H-tetrazol-1-yl)]phenyl-N4-(2,2,6,6-tetramethylpiperidin-4-yl)-2,4-pyrimidinediamine], the IC50 was > 1000 nM.

On to `CCc1nnnn1-c1cc(Nc2ncc(C#N)c(NC3CC(C)(C)NC(C)(C)C3)n2)ccc1OC(F)F` [Compound I-84, 5-cyano-N2-[4-difluoromethoxy-3-(5-ethyl-1H-tetrazol-1-yl)]phenyl-N4-(2,2,6,6-tetramethylpiperidin-4-yl)-2,4-pyrimidinediamine], for which the IC50 was > 1000 nM.

Consider `CC1(C)CC(Nc2nc(Nc3cccc(-c4nnn[nH]4)c3)ncc2C#N)CC(C)(C)N1` [Compound I-85, 5-Cyano-N4-(2,2,6,6-tetramethylpiperidin-4-yl)-N2-[3-(tetrazol-5-yl)]phenyl-2,4-pyrimidinediamine], for which the IC50 is > 1000 nM.

With `CC(C)n1nnnc1-c1cccc(Nc2ncc(C#N)c(NC3CC(C)(C)N(C)C(C)(C)C3)n2)c1` [Compound I-88, 5-Cyano-N2-{3-[1-N-isopropyl-(tetrazol-5-yl)]}phenyl-N4-(1,2,2,6,6-pentamethylpiperidin-4-yl)-2,4-pyrimidinediamine], the IC50 is < 250 nM.

Consider `COc1ccc(Nc2ncc(F)c(NC3CC(C)(C)NC(C)(C)C3)n2)cc1-n1c(C)ccc1C` [Compound I-93, N2-[3-(2,5-Dimethyl-pyrrol-1-yl)-4-methoxy]phenyl-5-fluoro-N4-(2,2,6,6-tetramethylpiperidin-4-yl)-2,4-pyrimidinediamine], for which the IC50 is < 250 nM.
